Laboratory results as given in PMC3325965, “Structural Basis of the Chromodomain of Cbx3 Bound to Methylated Peptides from Histone H1 and G9a” (PLoS ONE, 2012).
Square brackets hold non-standard residues; d marks the D form. Peptide text beside a SMILES is read from it. Lys(Me3) = C[N+](C)(C)CCCC[C@H](N)C(=O)O; Lys(Me2) = CN(C)CCCC[C@H](N)C(=O)O; Lys(Me) = CNCCCC[C@H](N)C(=O)O

Target: T1, human Cbx3 chromodomain (Homo sapiens, UniProt Q13185)
T1 construct: The chromodomain of Cbx3 (29–86) was subcloned into a pET-28a-MHL vector; His tag (TEV-cleavable, pET-28a-MHL) (N, cleaved yes); made in house
T1 sequence (Q13185 29-86): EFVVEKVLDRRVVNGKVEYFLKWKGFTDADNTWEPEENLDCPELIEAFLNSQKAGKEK
Experiment: Isothermal titration calorimetry (ITC) of methylated peptides binding to Cbx3 chromodomain
Parameters: key to Kd peptide: N/B: No binding was detected
Settings: Cbx3 chromodomain (residues 29–86), 60 µl of peptide solution (1–2 mM) injected into cell with 40–100 mM protein, 20 mM Tris–HCl, pH 7.5, 150 mM NaCl, one-site binding model
Description: Chromodomain has been identified to be a methyl-lysine binding motif involved in transcription regulation, [28]. Many chromodomain-containing proteins, such as HP1 proteins and Polycomb group proteins, were reported to recognize methylated histone tails, [13], [17], [29]. Besides methylated histone H3K9, Cbx3, also known as HP1γ, can also bind to methylated Lys26 of histone H1 and methylated Lys185 of G9a, [22], [23]. To elucidate the binding affinity of Cbx3 chromodomain to these two methylated sites, isothermal titration calorimetry (ITC) assay was performed using histone H1K26 and G9aK185 peptides bearing different lysine methylation states as substrates. […] (Table 1).
Isothermal titration calorimetry measurements were performed as reported previously. Experiments were carried out by injecting 60 µl of peptide solution (1–2 mM) into a sample cell containing […] protein of Cbx3 chromodomain in 20 mM Tris–HCl, pH 7.5, 150 mM NaCl. The ITC measurements were fit to a one-site binding model using Origin Software (MicroCal Inc.)

| Kd peptide | Kd [µM] | Molecule | also measured |
| --- | --- | --- | --- |
| N/B | – | KVHRARK^185TMSKP [G9a(179–190) unmodified, histone methyltransferase G9a peptide, residues 179–190, without modification] | Kd peptide (listed as G9aK185): did not exhibit detectable binding |
| – | 9 | CSCC[C@H](NC(=O)[C@@H](NC(=O)[C@H](CCCCN(C)C)NC(=O)[C@H](CCCNC(=N)N)NC(=O)[C@H](C)NC(=O)[C@H](CCCNC(=N)N)NC(=O)[C@H](Cc1c[nH]cn1)NC(=O)[C@@H](NC(=O)[C@@H](N)CCCCN)C(C)C)[C@@H](C)O)C(=O)N[C@@H](CO)C(=O)N[C@@H](CCCCN)C(=O)N1CCC[C@H]1C(=O)O [G9a(179–190) me2] (H-KVHRAR[Lys(Me2)]TMSKP-OH) | – |
| – | 28 | CNCCCC[C@H](NC(=O)[C@H](CCCNC(=N)N)NC(=O)[C@H](C)NC(=O)[C@H](CCCNC(=N)N)NC(=O)[C@H](Cc1c[nH]cn1)NC(=O)[C@@H](NC(=O)[C@@H](N)CCCCN)C(C)C)C(=O)N[C@H](C(=O)N[C@@H](CCSC)C(=O)N[C@@H](CO)C(=O)N[C@@H](CCCCN)C(=O)N1CCC[C@H]1C(=O)O)[C@@H](C)O [G9a(179–190) me1] (H-KVHRAR[Lys(Me)]TMSKP-OH) | – |
| N/B | – | TPVKKKARK^26SAG [H1.4(18–29) me1, histone H1.4 peptide, residues 18–29, mono-methylated at Lys26] | – |
| N/B ^* | – | TPVKKKARK^26SAG [H1.4(18–29) unmodified, histone H1.4 peptide, residues 18–29, without modification] | Kd peptide (listed as H1K26): did not exhibit detectable binding |
| – | 14 | CSCC[C@H](NC(=O)[C@@H](NC(=O)[C@H](CCCC[N+](C)(C)C)NC(=O)[C@H](CCCNC(=N)N)NC(=O)[C@H](C)NC(=O)[C@H](CCCNC(=N)N)NC(=O)[C@H](Cc1c[nH]cn1)NC(=O)[C@@H](NC(=O)[C@@H](N)CCCCN)C(C)C)[C@@H](C)O)C(=O)N[C@@H](CO)C(=O)N[C@@H](CCCCN)C(=O)N1CCC[C@H]1C(=O)O [G9a(179–190) me3] (H-KVHRAR[Lys(Me3)]TMSKP-OH) | – |
